The source of these data is PubChem BioAssay (NCI).

Some test systems named below: HOP-62 NSCLC; BT-549 breast; SF-539 CNS; HL-60(TB) leukemia; SF-295 CNS; EKVX NSCLC; ACHN renal; HCC-2998 colon; OVCAR-4 ovarian; OVCAR-3 ovarian.
Holding throughout (experiment): NCI tumour cell line growth inhibition, 48 h

Molecules are shown by their SMILES. Where “and” joins values, the source holds several entries; their conditions need not be identical. Identical values can stand only once.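 96-well plates; 48 h exposure; 5 concentrations. Endpoints by linear interpolation between flanking doses. Not reached: highest tested concentration assigned. At the GI50, growth is halved. The concentration for full growth arrest is given as TGI.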

With `O=P1(c2ccccc2)C2=CCC=CC2C(c2ccccc2)N1Cc1ccccc1` (configuration not stated), the TGI with HOP-62 NSCLC was 37.6 µM; with BT-549 breast, 31.6 µM; in the assay on SF-539 CNS, 31.5 µM; with HL-60(TB) leukemia, 39.9 µM; in the assay on SF-295 CNS it was 28.8 µM; in the assay on EKVX NSCLC, 28.7 µM. In the assay with ACHN renal, this compound gave a TGI of 30.4 µM.
Regarding `C=CC1(c2ccc(OC)cc2)OCCCO1`, the TGI in the assay on HCC-2998 colon, in the assay with HOP-62 NSCLC, in the assay with SF-539 CNS, in the assay on OVCAR-4 ovarian, in the assay with OVCAR-3 ovarian and in the assay on HL-60(TB) leukemia was above 100 µM in each case. Besides, the TGI in the assay with SF-295 CNS was above 100 µM; in the assay with EKVX NSCLC, 34.6 µM; with ACHN renal, above 100 µM.
`CC(=O)N(CN1C(=O)CCC1C(=O)O)c1ccccc1Cl` (configuration not stated): the TGI in the assay on HCC-2998 colon, in the assay on HOP-62 NSCLC, with SF-539 CNS, in the assay with OVCAR-4 ovarian, with OVCAR-3 ovarian and in the assay with HL-60(TB) leukemia was above 100 µM in each case. The TGI in the assay on SF-295 CNS, in the assay on EKVX NSCLC and in the assay with ACHN renal was above 100 µM in each case.
Turning to `CN1B(c2ccccc2)N(C)C(=O)N(C)C1=O`, the TGI in the assay on BT-549 breast, in the assay with SF-539 CNS, in the assay on HL-60(TB) leukemia, in the assay on SF-295 CNS, in the assay with EKVX NSCLC and in the assay on ACHN renal was above 100 µM throughout.
With `N#C/C(=C\c1ccccc1Br)C(=O)c1ccccc1`, the TGI with HCC-2998 colon was above 100 µM; with HOP-62 NSCLC, above 100 µM; in the assay on SF-539 CNS it was above 100 µM; with OVCAR-4 ovarian, 58.8 µM; in the assay on OVCAR-3 ovarian, above 69.2 µM; with HL-60(TB) leukemia, 15.9 µM. Further, the TGI in the assay on SF-295 CNS is above 87.5 µM; in the assay with EKVX NSCLC it was above 100 µM; in the assay with ACHN renal it was above 89.6 µM.
For the compound `CC1(C)c2ccccc2C(O)C12CCC(=O)CC2` (configuration not stated), the TGI in the assay with HCC-2998 colon, in the assay with HOP-62 NSCLC, in the assay on SF-539 CNS, in the assay on OVCAR-4 ovarian, in the assay on OVCAR-3 ovarian and with HL-60(TB) leukemia was above 100 µM throughout. Further, the TGI with SF-295 CNS, in the assay with EKVX NSCLC and with ACHN renal was above 100 µM throughout.
Take `CN(C)CCNc1nc2c(no[n+]2[O-])c2ccccc12`: the TGI was 59.2 µM in the assay on HCC-2998 colon; 34.9 µM in the assay on HOP-62 NSCLC; 27.6 µM in the assay on SF-539 CNS; 61.1 µM with OVCAR-4 ovarian; 71.7 µM in the assay with OVCAR-3 ovarian; 81.9 µM in the assay on SF-295 CNS. For the same compound, the TGI in the assay with EKVX NSCLC came out at 73.9 µM; in the assay with ACHN renal, 40.4 µM.
Regarding `CCN(CC)CCNc1ccc2ncn3c4cc(=O)ccc4c(O)c1c23`, the TGI in the assay on HCC-2998 colon was 15.6 µM; in the assay with HOP-62 NSCLC, 17.9 µM; with SF-539 CNS it was 15.1 µM; in the assay on OVCAR-4 ovarian, 13.5 µM; in the assay with OVCAR-3 ovarian, 6.36 µM; with HL-60(TB) leukemia, 11.9 µM. For the same compound, the values for the TGI with SF-295 CNS, in the assay on EKVX NSCLC and in the assay with ACHN renal were 10.7 µM, 23 µM and 10.6 µM, respectively.
On to `CC1(C)CC2C(C1=O)C1(C)CCCC2(C)C1=O` (configuration not stated), for which the TGI with HCC-2998 colon, in the assay on HOP-62 NSCLC, with SF-539 CNS, in the assay on OVCAR-4 ovarian, in the assay with OVCAR-3 ovarian and in the assay with HL-60(TB) leukemia was above 100 µM each time. Besides, the TGI with SF-295 CNS, in the assay on EKVX NSCLC and with ACHN renal was above 100 µM each time.
Take `CCCCCCCCCCSCC(CO)NC(=O)/C=C/c1c(C)[nH]c(=O)[nH]c1=O` (configuration not stated): the TGI is 7.38 µM and 11.5 µM in the assay on HCC-2998 colon; > 31.1 µM and 31.2 µM in the assay on HOP-62 NSCLC; above 36.5 µM in the assay on SF-539 CNS; 4.01 µM with OVCAR-4 ovarian; 3.05 µM and 9.12 µM in the assay on OVCAR-3 ovarian; > 35.2 µM and 6.35 µM in the assay on HL-60(TB) leukemia. Besides, the TGI with SF-295 CNS was above 50 µM; with EKVX NSCLC, above 42.3 µM. In addition, the GI50 in the assay on OVCAR-4 ovarian is 0.912 µM and 0.192 µM; in the assay on SF-295 CNS, 14.6 µM.
For `O=S(=O)(/N=C(\NO)Nc1ccc(Cl)cc1)c1ccc(-c2ccccn2)s1`, the TGI was above 100 µM with HOP-62 NSCLC; above 100 µM with BT-549 breast; above 100 µM in the assay with SF-539 CNS; above 100 µM in the assay with OVCAR-4 ovarian; 40.2 µM with OVCAR-3 ovarian; above 100 µM with HL-60(TB) leukemia. For the same compound, the TGI is above 100 µM in the assay on SF-295 CNS, 98.8 µM in the assay on EKVX NSCLC and above 100 µM in the assay with ACHN renal.
For the compound `Cc1ccc2c(=O)c(-c3n[nH]c(=S)s3)c[nH]c2n1`, the TGI in the assay with HOP-62 NSCLC, in the assay on BT-549 breast, with OVCAR-4 ovarian, with OVCAR-3 ovarian, in the assay on HL-60(TB) leukemia and in the assay with SF-295 CNS was above 100 µM each time. The TGI in the assay with EKVX NSCLC and with ACHN renal was above 100 µM throughout.
With `O=C1C[C@H](c2ccc(O)c(O)c2)Oc2cc(O)cc(O)c21`, the TGI in the assay on HCC-2998 colon, in the assay on HOP-62 NSCLC, in the assay on SF-539 CNS, with OVCAR-4 ovarian, in the assay on OVCAR-3 ovarian and in the assay on HL-60(TB) leukemia was above 100 µM in each case. The TGI in the assay on SF-295 CNS, with EKVX NSCLC and in the assay with ACHN renal was above 100 µM each time.
Take `COc1cc2c(cc1OCCCCCOc1cc3c(cc1OC)C(=O)N1CCC[C@H]1CN3)N=C[C@@H]1CCCN1C2=O`: the TGI with HOP-62 NSCLC is 31.5 µM; in the assay with BT-549 breast it was 34.9 µM; with SF-539 CNS, 20.4 µM; in the assay with OVCAR-4 ovarian, above 100 µM; in the assay with OVCAR-3 ovarian, 44.7 µM; in the assay with HL-60(TB) leukemia, 30 µM. Moreover, the TGI in the assay with SF-295 CNS was 34 µM; with EKVX NSCLC, above 100 µM; in the assay with ACHN renal, 27.6 µM.
Regarding `COc1ccc(N2C(=O)C3CC4=CC(=O)C[C@H]4[C@H]32)cc1` (some centres not stated), the TGI with HCC-2998 colon, in the assay with HOP-62 NSCLC, in the assay on BT-549 breast, in the assay on OVCAR-4 ovarian, with OVCAR-3 ovarian and with SF-295 CNS was above 100 µM each time. The TGI with ACHN renal is above 100 µM.
